Read-outs that look alike come from different tables or passages of the source.
How the values were obtained:
CDK4/cyclin D3 = biological target: T1, CDK4/cyclin D3 (Homo sapiens, UniProt P11802); test: Human CDK4/cyclin D3 inhibitory activity (QS S Assist CDK4/Cyclin D3_FP Kit, IMAP fluorescence polarization); assay type: biochemical
T1 construct: purchased Carna Biosciences, Inc. QS S Assist CDK4/Cyclin D3_FP Kit
Summary of the method: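 IMAP fluorescence polarization kit: CDK4/cyclin D3 at 12.5-25 ng/well with kit ATP/substrate/metal mix in 20 mM HEPES pH 7.4, 0.01% Tween20, 2 mM DTT, 45 min at room temperature. FP read at 485/535 nm after 30 min binding; IC50 from dose-response fit of percent inhibition versus enzyme and no-enzyme controls.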

CDK2/cyclin A2 = biological target: T2, CDK2/cyclin A2 (Homo sapiens, UniProt P24941); test: Human CDK2/cyclin A2 inhibitory activity (QS S Assist CDK2/Cyclin A2_FP Kit, IMAP fluorescence polarization); assay type: biochemical
T2 construct: purchased Carna Biosciences, Inc. QS S Assist CDK2/Cyclin A2_FP Kit
Summary of the method: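 Kinase activity read as fluorescence polarization (485/535 nm) after phosphorylated fluorescent substrate binds IMAP reagent (30 min, RT, dark). Enzyme (2.5 ng/well) reacted 60 min at RT with ATP/substrate/metal in HEPES pH 7.4 buffer with Tween 20 and DTT; no-enzyme wells define 0% activity; IC50 by curve fit.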

[1] = Human CDK4/cyclin D3 inhibitory activity, read-out: CDK4 Activity symbol
[2] = Human CDK2/cyclin A2 inhibitory activity, read-out: CDK2 Activity symbol
[3] = 50% inhibitory concentration against CDK4/cyclin D3, given as class symbol
[4] = 50% inhibitory concentration against CDK2/cyclin A2, given as class symbol

T1 sequence (P11802 whole entry): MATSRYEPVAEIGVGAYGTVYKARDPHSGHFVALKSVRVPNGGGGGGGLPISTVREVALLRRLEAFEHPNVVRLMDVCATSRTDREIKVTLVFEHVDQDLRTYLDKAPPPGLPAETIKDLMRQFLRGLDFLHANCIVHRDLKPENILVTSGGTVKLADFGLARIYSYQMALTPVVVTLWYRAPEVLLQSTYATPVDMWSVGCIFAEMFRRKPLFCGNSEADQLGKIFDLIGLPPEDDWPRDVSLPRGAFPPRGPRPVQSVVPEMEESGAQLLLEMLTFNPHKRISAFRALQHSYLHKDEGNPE
T1 sequence (P30281 whole entry partner): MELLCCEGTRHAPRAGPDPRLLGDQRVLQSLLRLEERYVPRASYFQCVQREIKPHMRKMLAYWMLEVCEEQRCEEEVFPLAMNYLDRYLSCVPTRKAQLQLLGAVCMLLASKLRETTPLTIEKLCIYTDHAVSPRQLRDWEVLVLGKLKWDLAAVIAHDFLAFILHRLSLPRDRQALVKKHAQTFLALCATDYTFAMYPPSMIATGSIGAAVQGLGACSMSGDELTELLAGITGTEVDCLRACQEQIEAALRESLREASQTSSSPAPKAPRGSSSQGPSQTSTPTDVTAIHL

Compound	IC50 (CDK4/cyclin D3; [1])	IC50 (CDK2/cyclin A2; [2])	IC50 (CDK4/cyclin D3; [3])	IC50 (CDK2/cyclin A2; [4])
CNc1nc(C(C)O)cc2cnc(Nc3ccc(N4CCNCC4)cn3)nc12 (stereo not drawn) [Compound 22]	10 to 100 nM	≥ 100 nM		
COCC(C)Nc1nc(C(F)F)cc2cnc(Nc3ccc(N4CCNCC4)cn3)nc12 (stereo not drawn) [Compound 30]	< 10 nM	10 to 100 nM		
CC(C)Nc1nc([C@@H](C)O)cc2cnc(Nc3ccc(CN4CCNC5(CC5)C4)cn3)nc12 [Compound 537]	< 10 nM	≥ 100 nM		
CC(C)Nc1nc([C@@H](C)O)cc2cnc(Nc3ccc(N4CCN(CCO)CC4=O)cn3)nc12 [Compound 597]	< 10 nM	≥ 100 nM		
CC(C)Nc1nc([C@@H](C)O)cc2cnc(Nc3ccc(N4CCN(CC(N)=O)CC4=O)cn3)nc12 [Compound 900]			< 10 nM	≥ 100 nM
COCC(C)(C)Nc1nc([C@@H](C)O)cc2cnc(Nc3ccc(NCCO)nn3)nc12 [Compound 235]	10 to 100 nM	≥ 100 nM		
CCNC(=O)NCc1ccc(Nc2ncc3cc(C(F)F)nc(NC(C)C)c3n2)nc1 [Compound 186]	10 to 100 nM	≥ 100 nM		
C[C@@H](O)c1cc2cnc(Nc3ccc(N4CCNCC4)nn3)nc2c(NC2CCOCC2)n1 [Compound 250]	< 10 nM	≥ 100 nM		
C[C@@H](O)c1cc2cnc(Nc3ccc(N4CCNCC4)nn3)nc2c(N[C@H]2CC[C@H](C(=O)O)CC2)n1 [Compound 338]	< 10 nM	≥ 100 nM		
CO[C@H](C)c1cc2cnc(Nc3ccc(N4CC5(CCN5)C4)nn3)nc2c(NC(C)C)n1 [Compound 696]			< 10 nM	≥ 100 nM
CC(C)Nc1nc(C(C)O)cc2cnc(Nc3ccc(C4COCCN4)cn3)nc12 (single isomer, unassigned) [Compound 866]			< 10 nM	≥ 100 nM
CC(C)Nc1nc(C(F)F)cc2cnc(Nc3ccc(CCCN4CCCC4=O)cn3)nc12 [Compound 167]	< 10 nM	≥ 100 nM		
Cc1nc(Nc2ncc3c(Cl)c([C@@H](C)O)nc(NC(C)C)c3n2)ccc1N1CCNCC1=O [Compound 815]			< 10 nM	≥ 100 nM
CC(C)Nc1nc(C(C)O)cc2cnc(Nc3ccc(OC4CCC(C(=O)O)CC4)cn3)nc12 (single isomer, unassigned) [Compound 832]			10 to 100 nM	≥ 100 nM
CC(O)c1cc2cnc(Nc3ccc(N4CCNCC4)cn3)nc2c(NC2CC2)n1 (stereo not drawn) [Compound 21]	< 10 nM	≥ 100 nM		
CC(O)c1cc2cnc(Nc3ccc(N4CCNCC4)cn3)nc2c(NC(C)c2ccccc2)n1 (stereo not drawn) [Compound 70]	< 10 nM	≥ 100 nM		
CO[C@H](C)c1cc2cnc(Nc3ccc(N4CCNCC4)nn3)nc2c(N[C@H]2CC[C@H](C(=O)O)CC2)n1 [Compound 339]	10 to 100 nM	≥ 100 nM		
COC[C@H](C)Nc1nc([C@@H](C)O)c(Cl)c2cnc(Nc3ccc(N4CCNCC4=O)cn3)nc12 [Compound 756]			10 to 100 nM	≥ 100 nM
COC(C)c1cc2cnc(Nc3ccc(N4CCNCC4)cn3)nc2c(NC(C)C)n1 (stereo not drawn) [Compound 37]	< 10 nM	≥ 100 nM		
CC(C)Nc1nc([C@@H](C)O)cc2cnc(Nc3ccc(N4CCN5CCCC5C4=O)cn3)nc12 (stereo partly drawn) [Compound 642]			< 10 nM	≥ 100 nM
CC(C)Nc1nc(C(F)F)cc2cnc(Nc3ccc(CNS(C)(=O)=O)cn3)nc12 [Compound 140]	< 10 nM	≥ 100 nM		
CC(C)Nc1nc([C@@H](C)O)cc2cnc(Nc3ccc(CN4CCN(CC(C)(C)O)CC4)cn3)nc12 [Compound 626]	< 10 nM	≥ 100 nM		
CO[C@H](C)c1cc2cnc(Nc3ccc(CN4CCN(CCO)CC4)cn3)nc2c(NC(C)(C)CO)n1 [Compound 913]			< 10 nM	≥ 100 nM
CC(C)Nc1nc(C2CCOC2)cc2cnc(Nc3ccc4c(n3)CCNC4)nc12 (stereo not drawn) [Compound 885]			< 10 nM	≥ 100 nM
COCC(C)(C)Nc1nc([C@@H](C)O)cc2cnc(Nc3ccc(CN4CCC(C(C)(C)O)CC4)cn3)nc12 [Compound 196]	< 10 nM	≥ 100 nM		
CC(O)c1cc2cnc(Nc3ccc(N4CCNCC4)cn3)nc2c(NC2CCC2)n1 (stereo not drawn) [Compound 48]	< 10 nM	≥ 100 nM		
CC(C)Nc1nc([C@@H](C)O)cc2cnc(Nc3ccc(N4CCNC(C(F)(F)F)C4)nn3)nc12 (stereo partly drawn) [Compound 896]			< 10 nM	≥ 100 nM
CC(C)Nc1nc([C@H](C)O)c(F)c2cnc(Nc3ccc(N4CCNCC4)cn3)nc12 [Compound 63]	< 10 nM	≥ 100 nM		
CC(=O)c1cc2cnc(Nc3ccc(N4CCNCC4)cn3)nc2c(N(C)C(C)C)n1 [Compound 91]	< 10 nM	≥ 100 nM		
CO[C@H](C)c1cc2cnc(Nc3ccc(N4CCN(C(=O)CO)CC4)nn3)nc2c(NC(C)C)n1 [Compound 335]	< 10 nM	≥ 100 nM		

More lines, now with the values ahead:

IC50 (CDK4/cyclin D3; [1])	IC50 (CDK2/cyclin A2; [2])	IC50 (CDK4/cyclin D3; [3])	IC50 (CDK2/cyclin A2; [4])	Compound
		< 10 nM	≥ 100 nM	CC(C)Nc1nc([C@@H](C)O)cc2cnc(Nc3ccc(CN4CCCCC4)cn3)nc12 [Compound 1038]
		< 10 nM	10 to 100 nM	CC(C)Nc1nc([C@@H](C)O)c(F)c2cnc(Nc3ccc(N4CCNCC4=O)cn3)nc12 [Compound 981]
		< 10 nM	≥ 100 nM	CC(C)Nc1nc([C@@H](C)O)cc2cnc(Nc3ccc(CN4CCCC(O)C4)cn3)nc12 (stereo partly drawn) [Compound 1057]
		< 10 nM	≥ 100 nM	CCCNc1nc([C@@H](C)OC)cc2cnc(Nc3ccc(N4CC5(CC(NC)C5)C4)cn3)nc12 [Compound 1008]
		< 10 nM	≥ 100 nM	CO[C@H](C)c1cc2cnc(Nc3ccc(CN4CCN(CCO)CC4)cn3)nc2c(N[C@H]2CC[C@H](O)CC2)n1 [Compound 917]
		< 10 nM	≥ 100 nM	CC(C)Nc1nc([C@@H](C)O)cc2cnc(Nc3ccc(N4CCNC[C@H]4C)cn3)nc12 [Compound 985]
		< 10 nM	≥ 100 nM	C[C@@H](O)c1cc2cnc(Nc3ccc(CN4CCN(CCO)CC4)cn3)nc2c(NCCCF)n1 [Compound 1074]
		< 10 nM	≥ 100 nM	CC(C)Nc1nc([C@@H](C)O)cc2cnc(Nc3ccc(N4C(=O)CNCC4C)cn3)nc12 (stereo partly drawn) [Compound 1033]
		< 10 nM	≥ 100 nM	C[C@@H](O)c1cc2cnc(Nc3ccc(CN4CCN(CCO)CC4)cn3)nc2c(NC2CC(F)C2)n1 (stereo partly drawn) [Compound 1171]
		< 10 nM	≥ 100 nM	CC(C)Nc1nc([C@@H](C)O)cc2cnc(Nc3ccc4c(n3)CCN(C(=O)[C@@H](N)C(C)C)C4)nc12 [Compound 931]
		< 10 nM	≥ 100 nM	CCNc1nc([C@@H](C)O)cc2cnc(Nc3ccc(CN4CCN(CC(C)(C)O)CC4)cn3)nc12 [Compound 1073]
		< 10 nM	≥ 100 nM	CC(C)Nc1nc([C@@H](C)O)cc2cnc(Nc3cnc(CN4CCNCC4)cn3)nc12 [Compound 1049]
		< 10 nM	≥ 100 nM	CC(C)Nc1nc(C(C)O)cc2cnc(Nc3ccc(N4CCNC(C(F)(F)F)C4)nn3)nc12 (single isomer, unassigned) [Compound 989]
		< 10 nM	≥ 100 nM	CCNc1nc([C@@H](C)O)cc2cnc(Nc3ccc(CN4CCN(CCO)C(C)(C)C4)cn3)nc12 [Compound 1169]
		< 10 nM	≥ 100 nM	CCNc1nc([C@@H](C)O)cc2cnc(Nc3ccc(CN4CCN(C[C@H](C)O)CC4)cn3)nc12 [Compound 976]
